Drawing on ChEMBL document CHEMBL1777813, “Discovery of novel tetracyclic compounds as anaplastic lymphoma kinase inhibitors” (Bioorg Med Chem Lett, 2011), this text covers IC50, microsomal CLint and Activity for 18 compounds.

For data set [1], the target named is ALK tyrosine kinase receptor (Homo sapiens, UniProt Q9UM73).
Data set [2] in a line: Clearance in mouse liver microsomes at 1 uM after 30 mins in presence of NADPH. The data set is classed as ADME, Microsome.
Data set [3] is described as follows: Clearance in human liver microsomes at 1 uM after 30 mins in presence of NADPH. In kind it is ADME, Microsome. (Microsomes from liver hold many membrane-bound enzymes, among them those of drug oxidation.)
The test system of data set [4] is KARPAS-299. As to the kind of experiment: cells. The conditions noted are these: Homo sapiens, KARPAS-299, 96 h.
Data set [5] concerns the target Vascular endothelial growth factor receptor 2 (Homo sapiens, UniProt P35968). As to the kind of experiment: Inhibition of KDR assessed as biotin-EGPWLEEEEEAYGWMDF peptide phosphorylation by TR-FRET assay.
Data set [6] addresses Proto-oncogene tyrosine-protein kinase Src (Homo sapiens, UniProt P12931). Nature of the data set: Inhibition of Src assessed as biotin-EGPWLEEEEEAYGWMDF peptide phosphorylation by TR-FRET assay. A general note: Time-resolved FRET reads energy transfer from a long-lived donor to a nearby acceptor.
The target of data set [7] is Fibroblast growth factor receptor 2 (Homo sapiens, UniProt P21802). As to the kind of experiment: Inhibition of FGFR2 assessed as biotin-EGPWLEEEEEAYGWMDF peptide phosphorylation by TR-FRET assay.
Data set [8] deals with Tyrosine-protein kinase ABL1 (Homo sapiens, UniProt P00519). As to the kind of experiment: Inhibition of Abl assessed as biotin-EGPWLEEEEEAYGWMDF peptide phosphorylation by TR-FRET assay.
Data set [9] addresses Insulin-like growth factor 1 receptor (Homo sapiens, UniProt P08069). Nature of the data set: Inhibition of IGF1R assessed as biotin-EGPWLEEEEEAYGWMDF peptide phosphorylation by TR-FRET assay.
For data set [10], the target named is Epidermal growth factor receptor (Homo sapiens, UniProt P00533). Nature of the data set: Inhibition of EGFR assessed as biotin-EGPWLEEEEEAYGWMDF peptide phosphorylation by TR-FRET assay.
Data set [11] deals with Receptor tyrosine-protein kinase erbB-2 (Homo sapiens, UniProt P04626). Nature of the data set: Inhibition of HER2 assessed as biotin-HEQEDEPEGDYFEWLEPE peptide phosphorylation by TR-FRET assay.
The target in data set [12] is Mast/stem cell growth factor receptor Kit (Homo sapiens, UniProt P10721). As to the kind of experiment: Inhibition of Kit assessed as biotin-HEQEDEPEGDYFEWLEPE peptide phosphorylation by TR-FRET assay.
For data set [13], the target named is RAC-alpha serine/threonine-protein kinase (Homo sapiens, UniProt P31749). As to the kind of experiment: Inhibition of AKT1 assessed as FI-H1-peptide phosphorylation by fluorescence polarization assay. (In general: In fluorescence polarisation assays a small probe gives low polarisation when free and higher when bound to something large.)
A further data set has as its target T1, Aurora kinase A (Homo sapiens, UniProt O14965).
T1 sequence (O14965 whole entry): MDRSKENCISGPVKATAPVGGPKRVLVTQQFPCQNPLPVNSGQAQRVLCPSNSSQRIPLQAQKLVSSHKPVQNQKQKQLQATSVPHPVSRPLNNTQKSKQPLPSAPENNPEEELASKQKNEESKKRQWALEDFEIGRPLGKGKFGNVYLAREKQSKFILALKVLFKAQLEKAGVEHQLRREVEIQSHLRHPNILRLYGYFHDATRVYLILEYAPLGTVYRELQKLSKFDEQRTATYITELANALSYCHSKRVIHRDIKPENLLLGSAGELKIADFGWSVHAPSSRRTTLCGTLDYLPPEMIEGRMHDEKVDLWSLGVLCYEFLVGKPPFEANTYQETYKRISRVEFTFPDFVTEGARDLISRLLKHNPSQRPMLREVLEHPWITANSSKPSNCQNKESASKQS
Nature of the data set: Inhibition of aurora A assessed as FLC-LRRASLG peptide phosphorylation by fluorescence polarization assay.

In data set [14] the target is Protein kinase C alpha type (Homo sapiens, UniProt P17252). As to the kind of experiment: Inhibition of PKCalpha assessed as FLC-SIYRRGSRRWRKL peptide phosphorylation by fluorescence polarization assay.
The target in data set [15] is T2, Protein kinase C beta type (Homo sapiens, UniProt P05771). Nature of the data set: Inhibition of PKCbeta1 assessed as FLC-SIYRRGSRRWRKL peptide phosphorylation by fluorescence polarization assay.
The target in data set [16] is T2, Protein kinase C beta type. As to the kind of experiment: Inhibition of PKCbeta2 assessed as FLC-SIYRRGSRRWRKL peptide phosphorylation by fluorescence polarization assay.
The target of data set [17] is RAF proto-oncogene serine/threonine-protein kinase (Homo sapiens, UniProt P04049). As to the kind of experiment: Inhibition of Raf1 assessed as MEK1/2 phosphorylation by fluorescence polarization assay.
In data set [18] the test system is KARPAS-299. Nature of the data set: Antitumor activity against human KARPAS299 cells expressing NPM-ALK xenografted in SCID mouse assessed as reduction of tumor volume administered as po qd for 11 days. The data set is classed as functional, organism-based.
Data set [19] relates to NCI-H2228. Nature of the data set: Antitumor activity against human NCI-H2228 cells expressing EML4-ALK xenografted in SCID mouse assessed as reduction of tumor volume administered as po qd for 11 days. In kind it is functional, organism-based.
The subject of data set [20] is KARPAS-299. As to the kind of experiment: Antitumor activity against human KARPAS299 cells expressing NPM-ALK xenografted in SCID mouse assessed as tumor regression at 6 to 60 mg/kg, po qd for 11 days. In kind it is functional, organism-based.
Data set [21] relates to NCI-H2228. Nature of the data set: Antitumor activity against human NCI-H2228 cells expressing EML4-ALK xenografted in SCID mouse assessed as tumor regression at 0.2 to 20 mg/kg, po qd for 11 days. In kind it is functional, organism-based.
The test system of data set [22] is Mus musculus. As to the kind of experiment: Toxicity in human KARPAS299 cells expressing NPM-ALK xenografted SCID mouse administered as change in body weight at 6 to 60 mg/kg, po qd for 11 days. As to conditions: in vivo, 264 h. Also on record: dose 6-60 mg/kg, route oral. In kind it is organism-based, KARPAS-299.
In data set [23] the test system is Mus musculus. As to the kind of experiment: Toxicity in human NCI-H2228 cells expressing EML4-ALK xenografted SCID mouse administered as change in body weight at 0.2 to 20 mg/kg, po qd for 11 days. In kind it is organism-based. Also on record: dose 0.2-20 mg/kg, route oral. As to conditions: in vivo, 264 h.

Calls of active or inactive are those of the source. The calls are words filed in the database; no cut-off is given here. A value given as a limit tells only on which side of the number the result lay.

Chain of ALK tyrosine kinase receptor (Q9UM73 whole entry): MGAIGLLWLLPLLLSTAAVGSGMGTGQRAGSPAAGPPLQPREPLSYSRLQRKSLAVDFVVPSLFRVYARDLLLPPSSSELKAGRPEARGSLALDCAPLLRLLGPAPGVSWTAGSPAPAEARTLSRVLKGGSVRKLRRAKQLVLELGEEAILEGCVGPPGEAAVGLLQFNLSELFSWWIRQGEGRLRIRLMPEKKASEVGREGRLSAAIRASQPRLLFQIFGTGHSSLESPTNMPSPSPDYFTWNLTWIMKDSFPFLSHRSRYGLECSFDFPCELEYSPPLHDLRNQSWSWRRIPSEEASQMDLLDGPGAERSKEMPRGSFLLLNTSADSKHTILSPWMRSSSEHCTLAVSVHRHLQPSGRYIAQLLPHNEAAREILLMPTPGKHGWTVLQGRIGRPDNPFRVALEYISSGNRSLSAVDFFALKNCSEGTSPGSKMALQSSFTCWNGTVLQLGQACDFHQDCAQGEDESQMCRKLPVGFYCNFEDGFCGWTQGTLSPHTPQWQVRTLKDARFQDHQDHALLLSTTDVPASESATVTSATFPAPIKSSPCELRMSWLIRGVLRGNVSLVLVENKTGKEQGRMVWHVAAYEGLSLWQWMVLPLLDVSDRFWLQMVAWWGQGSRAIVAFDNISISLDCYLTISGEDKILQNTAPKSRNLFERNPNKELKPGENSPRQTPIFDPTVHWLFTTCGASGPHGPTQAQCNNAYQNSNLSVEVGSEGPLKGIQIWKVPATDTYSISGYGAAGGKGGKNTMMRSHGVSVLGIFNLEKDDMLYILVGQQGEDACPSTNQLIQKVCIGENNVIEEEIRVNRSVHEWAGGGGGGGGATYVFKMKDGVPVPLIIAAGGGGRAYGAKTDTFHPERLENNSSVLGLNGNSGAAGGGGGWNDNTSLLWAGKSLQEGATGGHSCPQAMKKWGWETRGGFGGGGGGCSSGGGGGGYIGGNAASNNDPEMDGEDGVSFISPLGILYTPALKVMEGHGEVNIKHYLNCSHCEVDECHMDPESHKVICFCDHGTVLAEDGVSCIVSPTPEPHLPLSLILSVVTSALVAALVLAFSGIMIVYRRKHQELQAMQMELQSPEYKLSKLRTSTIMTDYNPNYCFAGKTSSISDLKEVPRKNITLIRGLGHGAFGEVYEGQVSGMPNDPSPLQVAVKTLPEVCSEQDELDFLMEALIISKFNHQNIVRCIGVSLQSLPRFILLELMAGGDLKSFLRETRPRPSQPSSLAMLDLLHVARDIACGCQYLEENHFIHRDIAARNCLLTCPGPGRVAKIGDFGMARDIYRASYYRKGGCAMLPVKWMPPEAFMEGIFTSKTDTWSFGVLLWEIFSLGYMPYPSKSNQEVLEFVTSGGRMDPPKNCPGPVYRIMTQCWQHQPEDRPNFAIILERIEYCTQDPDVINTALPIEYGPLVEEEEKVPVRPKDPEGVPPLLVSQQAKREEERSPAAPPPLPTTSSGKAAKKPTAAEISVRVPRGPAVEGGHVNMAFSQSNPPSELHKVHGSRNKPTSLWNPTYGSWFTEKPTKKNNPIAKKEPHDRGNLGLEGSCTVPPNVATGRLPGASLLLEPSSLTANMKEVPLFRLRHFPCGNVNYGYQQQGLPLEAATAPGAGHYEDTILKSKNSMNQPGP
T2 sequence (P05771 whole entry): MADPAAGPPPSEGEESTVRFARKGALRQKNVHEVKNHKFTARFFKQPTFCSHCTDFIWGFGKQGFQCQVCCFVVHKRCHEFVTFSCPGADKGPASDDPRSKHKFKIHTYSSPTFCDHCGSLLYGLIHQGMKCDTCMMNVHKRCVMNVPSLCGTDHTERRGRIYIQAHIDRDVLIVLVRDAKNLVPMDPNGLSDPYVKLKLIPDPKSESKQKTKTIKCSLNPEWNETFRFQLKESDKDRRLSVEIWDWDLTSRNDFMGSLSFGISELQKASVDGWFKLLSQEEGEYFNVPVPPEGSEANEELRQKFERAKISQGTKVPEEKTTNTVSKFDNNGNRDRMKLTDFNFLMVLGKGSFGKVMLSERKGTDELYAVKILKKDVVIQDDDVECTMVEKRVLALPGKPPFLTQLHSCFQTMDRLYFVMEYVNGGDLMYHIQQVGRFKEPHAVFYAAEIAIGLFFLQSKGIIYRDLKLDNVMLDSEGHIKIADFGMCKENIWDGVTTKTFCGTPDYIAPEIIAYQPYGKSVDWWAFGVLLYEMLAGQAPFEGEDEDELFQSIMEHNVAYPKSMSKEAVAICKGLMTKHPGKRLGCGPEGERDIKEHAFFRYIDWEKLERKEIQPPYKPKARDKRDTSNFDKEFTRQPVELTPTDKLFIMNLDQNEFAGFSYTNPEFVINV
Chain of RAF proto-oncogene serine/threonine-protein kinase (P04049 whole entry): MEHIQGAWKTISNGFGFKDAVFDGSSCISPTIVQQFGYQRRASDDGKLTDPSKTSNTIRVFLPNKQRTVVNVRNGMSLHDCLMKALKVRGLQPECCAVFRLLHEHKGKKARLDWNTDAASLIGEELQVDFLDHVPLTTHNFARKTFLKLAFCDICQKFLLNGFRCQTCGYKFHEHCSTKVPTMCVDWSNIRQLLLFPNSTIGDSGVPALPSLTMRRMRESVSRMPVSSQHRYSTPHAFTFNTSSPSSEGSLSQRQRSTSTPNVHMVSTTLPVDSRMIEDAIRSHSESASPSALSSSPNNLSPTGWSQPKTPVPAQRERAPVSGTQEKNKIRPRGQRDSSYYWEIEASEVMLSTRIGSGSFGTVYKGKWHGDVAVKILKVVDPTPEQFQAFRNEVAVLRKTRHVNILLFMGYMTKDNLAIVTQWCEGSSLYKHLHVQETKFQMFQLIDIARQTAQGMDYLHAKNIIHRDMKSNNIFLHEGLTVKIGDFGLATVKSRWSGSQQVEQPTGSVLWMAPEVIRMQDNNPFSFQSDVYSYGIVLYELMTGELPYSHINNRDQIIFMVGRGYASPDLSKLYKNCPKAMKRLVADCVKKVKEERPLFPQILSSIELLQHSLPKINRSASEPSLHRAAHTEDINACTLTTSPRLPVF
Chain of Insulin-like growth factor 1 receptor (P08069 31-736 limits assumed): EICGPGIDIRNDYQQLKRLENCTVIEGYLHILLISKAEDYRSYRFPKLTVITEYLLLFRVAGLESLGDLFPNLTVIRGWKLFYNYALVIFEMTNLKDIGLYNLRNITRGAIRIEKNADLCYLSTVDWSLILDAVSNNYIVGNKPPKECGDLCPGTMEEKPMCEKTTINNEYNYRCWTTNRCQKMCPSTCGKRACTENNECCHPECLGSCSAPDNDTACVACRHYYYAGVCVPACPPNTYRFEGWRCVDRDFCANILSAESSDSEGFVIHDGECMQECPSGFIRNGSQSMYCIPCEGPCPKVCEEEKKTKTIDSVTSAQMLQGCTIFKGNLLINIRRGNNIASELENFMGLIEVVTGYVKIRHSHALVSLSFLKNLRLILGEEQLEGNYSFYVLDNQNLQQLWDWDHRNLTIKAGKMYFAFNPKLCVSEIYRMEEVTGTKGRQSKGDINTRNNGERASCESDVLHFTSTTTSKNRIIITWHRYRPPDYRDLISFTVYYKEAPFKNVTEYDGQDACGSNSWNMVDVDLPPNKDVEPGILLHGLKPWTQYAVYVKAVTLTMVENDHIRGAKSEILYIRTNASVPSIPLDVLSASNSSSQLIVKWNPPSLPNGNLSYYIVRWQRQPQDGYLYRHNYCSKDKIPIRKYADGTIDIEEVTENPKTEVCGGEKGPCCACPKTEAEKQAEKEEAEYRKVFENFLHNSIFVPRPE
Chain of Insulin-like growth factor 1 receptor (P08069 741-1367 limits assumed): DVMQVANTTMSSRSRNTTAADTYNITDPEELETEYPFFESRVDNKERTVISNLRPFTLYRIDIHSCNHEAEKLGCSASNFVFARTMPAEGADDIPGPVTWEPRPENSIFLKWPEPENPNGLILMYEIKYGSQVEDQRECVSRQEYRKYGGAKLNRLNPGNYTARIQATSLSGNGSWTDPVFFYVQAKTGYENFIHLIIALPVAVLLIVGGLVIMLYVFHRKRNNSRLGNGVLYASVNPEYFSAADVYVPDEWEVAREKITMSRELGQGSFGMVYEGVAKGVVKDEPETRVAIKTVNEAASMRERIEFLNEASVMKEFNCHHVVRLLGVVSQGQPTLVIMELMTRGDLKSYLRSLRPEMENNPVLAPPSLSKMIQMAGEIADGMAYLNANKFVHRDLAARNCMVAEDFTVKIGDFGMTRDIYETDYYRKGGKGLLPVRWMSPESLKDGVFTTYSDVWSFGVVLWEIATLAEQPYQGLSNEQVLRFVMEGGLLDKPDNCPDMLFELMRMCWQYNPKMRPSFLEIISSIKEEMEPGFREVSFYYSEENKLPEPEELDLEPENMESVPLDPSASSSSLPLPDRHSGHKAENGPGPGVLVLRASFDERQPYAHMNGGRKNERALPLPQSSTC

For `CCN(CC)CCOc1ccc2c(c1)C(C)(C)c1oc3cc(C(F)(F)F)ccc3c1C2=O`, the 50% inhibitory concentration (IC50) (commonly the midpoint of a concentration-inhibition curve) in [1] was determined as 3470 nM.
As to `CCCOc1ccc2c3c(oc2c1)C(C)(C)c1cc(OCCN(CC)CC)ccc1C3=O`, in data set [1], inhibition was half-maximal at 2470 nM (IC50).
In the case of `CC(=O)NCCOc1ccc2c(c1)C(C)(C)c1[nH]c3cc(C#N)ccc3c1C2=O`, the IC50 was found to be 11.6 nM in [1] and 397 nM in the data set with KARPAS-299 [4]. Moreover, the microsomal CLint (as a rule, the capacity of the preparation to metabolise the compound, expressed as a volume cleared per time) at 1 µM in data set [2] was found to be 14.1 µL/min/mg; in data set [3], 4.2 µL/min/mg.
`CC1(C)c2cc(N3CCN(S(C)(=O)=O)CC3)ccc2C(=O)c2c1[nH]c1cc(C#N)ccc21`: the values for the IC50 (in data set [1]; in the data set with KARPAS-299 [4]) were 37.4 nM and 263 nM, respectively. The intrinsic metabolic clearance (microsomal CLint) at 1 µM in data set [2] came to 15.8 µL/min/mg; in data set [3] it was 19.2 µL/min/mg.
On to `CC1(C)c2cc(C3CCN(C4COC4)CC3)ccc2C(=O)c2c1[nH]c1cc(C#N)ccc21`, for which the IC50 in data set [5] was 100 nM; in [6], 250 nM; in data set [7] it was 360 nM; in data set [8] it was 370 nM; in data set [9], 1000 nM; in data set [10], above 50 µM. In addition, the IC50 (in data set [11]; in [12]; in data set [13]; at Aurora kinase A; in [14]; in data set [15]) was above 50 µM in each case. Besides, the IC50 in data set [16] and in data set [17] was above 50 µM in each case. The microsomal CLint at 1 µM in data set [2] came to 10.4 µL/min/mg; in data set [3], 10.2 µL/min/mg. Further, the Activity entry is “Dose-dependent effect” in the data set with KARPAS-299 [18], “Dose-dependent effect” with NCI-H2228 [19], “Non-toxic” in the data set on Mus musculus [22] and “Non-toxic” in the data set with Mus musculus [23]. In addition, the result with KARPAS-299 [20] and in the data set on NCI-H2228 [21] was Active.
Consider `CCN(CC)CCOc1ccc2c(c1)C(C)(C)c1[nH]c3cc(Br)ccc3c1C2=O`, for which half-maximal inhibition with KARPAS-299 [4] (IC50) was put at 680 nM.
As to `CC1(C)c2cc(N3CCN(C4COC4)CC3)ccc2C(=O)c2c1[nH]c1cc(C#N)ccc21`, the IC50 in data set [1] came to 27 nM; in the data set with KARPAS-299 [4], 47.9 nM. Besides, the results for the intrinsic clearance (microsomal CLint) at 1 µM in [2] and in [3] were 15.1 µL/min/mg and 9.6 µL/min/mg, respectively.
`CC1(C)c2cc(N3CCC(O)CC3)ccc2C(=O)c2c1[nH]c1cc(C#N)ccc21`: the IC50 in [1] is 11.4 nM; in the data set on KARPAS-299 [4], 115 nM. The microsomal CLint at 1 µM worked out at 24.6 µL/min/mg in [2] and 7.1 µL/min/mg in [3].
For the compound `CC1(C)c2cc(N3CCOCC3)ccc2C(=O)c2c1[nH]c1cc(C#N)ccc21`, the concentration for half-maximal inhibition (IC50) in data set [1] came to 18.5 nM; in the data set on KARPAS-299 [4], 134 nM. The values for the intrinsic clearance (microsomal CLint) at 1 µM in data set [2] and in data set [3] were 8.1 µL/min/mg and 33.6 µL/min/mg, respectively.
Turning to `CCN(CC)CCOc1ccc2c(c1)C(C)(C)c1[nH]c3cc(Cl)ccc3c1C2=O`, the IC50 with KARPAS-299 [4] was 490 nM.
`CCN(CC)CCOc1ccc2c(c1)C(C)(C)c1oc3cc(Cl)ccc3c1C2=O` showed an IC50 in [1] of 660 nM.
With `CC(C)N1CCN(c2ccc3c(c2)C(C)(C)c2[nH]c4cc(C#N)ccc4c2C3=O)CC1`, the microsomal CLint at 1 µM in data set [2] was 23.1 µL/min/mg; in data set [3] it was 82.7 µL/min/mg.
Turning to `CC1(C)c2cc(OCCNC(N)=O)ccc2C(=O)c2c1[nH]c1cc(C#N)ccc21`, the microsomal CLint at 1 µM turned out to be 6.8 µL/min/mg in data set [2] and 4 µL/min/mg in data set [3]. For the same compound, in the data set on KARPAS-299 [4], the IC50 came to 2310 nM.
`CCN(CC)CCOc1ccc2c(c1)C(C)(C)c1[nH]c3cc(C#N)ccc3c1C2=O`: the results for the intrinsic clearance (microsomal CLint) at 1 µM in [2] and in data set [3] were 51.4 µL/min/mg and 54.5 µL/min/mg, respectively. In the data set on KARPAS-299 [4], this compound displayed an IC50 of 60 nM.
On to `CC1(C)c2cc(N3CCCCC3)ccc2C(=O)c2c1[nH]c1cc(C#N)ccc21`, for which the IC50 was determined as 33.4 nM in data set [1] and 331 nM in the data set on KARPAS-299 [4]. In addition, the microsomal CLint at 1 µM in data set [2] came to 58.9 µL/min/mg; in [3] it was 39.5 µL/min/mg.
In data set [1], `CCN(CC)CCOc1ccc2c(c1)C(C)(C)c1oc3cc(Br)ccc3c1C2=O` showed an IC50 of 770 nM.
On to `CC1(C)c2cc(OCCN3CCS(=O)(=O)CC3)ccc2C(=O)c2c1[nH]c1cc(C#N)ccc21`, for which the IC50 in data set [1] was found to be 3.7 nM; in the data set on KARPAS-299 [4], 87.5 nM. Also, the microsomal CLint at 1 µM was 24.9 µL/min/mg in data set [2] and 67 µL/min/mg in data set [3].
`CCN(CC)CCOc1ccc2c(c1)C(C)(C)c1[nH]c3cc([N+](=O)[O-])ccc3c1C2=O`: the midpoint of inhibition with KARPAS-299 [4], the IC50, lay at 570 nM.
